pIC50: −log10 of the molar value. Several values for one entry are separate records, joined by “and”; a condition that tells them apart may be missing. Equal entries are not always repeated.
Biological target: T1, human ML1B receptor (Homo sapiens, UniProt P49286)
T1 construct: host or cells: NIH 3T3 cells, stably transfected; membrane homogenates
T1 sequence (P49286 1-362): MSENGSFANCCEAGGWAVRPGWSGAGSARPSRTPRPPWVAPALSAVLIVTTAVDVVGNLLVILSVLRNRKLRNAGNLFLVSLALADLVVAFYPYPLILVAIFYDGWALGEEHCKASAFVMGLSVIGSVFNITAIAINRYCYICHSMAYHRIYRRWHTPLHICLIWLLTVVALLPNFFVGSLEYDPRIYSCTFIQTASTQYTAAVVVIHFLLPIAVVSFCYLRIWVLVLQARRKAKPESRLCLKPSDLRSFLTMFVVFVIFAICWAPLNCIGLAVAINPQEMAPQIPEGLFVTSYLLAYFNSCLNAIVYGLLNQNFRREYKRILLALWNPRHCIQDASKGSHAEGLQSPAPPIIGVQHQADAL
Assay: Measurement of binding to melatonergic receptors (2-[125I]-iodomelatonin, membranes of transfected NIH 3T3 cells)
Conditions: 2-[125I]-Iodomelatonin 200 pM, 37 °C for 1 hour, NIH 3T3 cells stably transfected with the human ML1B receptor; read-out: Melatonin Binding
Experimental: The melatonergic binding affinities of various compounds of Formula I were determined by the method of Reppert, S. M., Weaver, D. R., and Ebisawa, R. (Neuron, Volume 13, 1177-1185, 1994). The assays were incubated at 37 °C for 1 hour, and the reaction was terminated by filtration. The filters were washed with wash buffer. […] The reagents, membrane and other techniques used in the melatonergic binding assays are more fully described below: • 1. Reagents: • (a) 50 mM Tris buffer containing 12.5 mM MgCl2, and 2mM EDTA, pH 7.4 at 37 °C. • (b) Wash buffer: 20 mM Tris base containing 2 mM MgCl2. pH 7.4 at room temperature. • (c) Melatonin (10^-5 M final concentration). • (d) 2-[^125I]-Iodomelatonin, 200 pM final concentration Source: NEN • 2. Membrane preparation: NIH 3T3 cells stably transfected with the human ML1B receptor were obtained from S.M. Reppert and maintained. Cells were pelleted when confluent. The supernatant was discarded and the pellets frozen. For preparing membrane homogenates, the pellets are thawed on ice and resuspended in TME buffer, Tris base, MgCl2, EDTA (pH 7.4 at 37 °C ), supplemented with aprotinin, leupeptin, and […]. The cells were then homogenized and centrifuged. The resulting pellet was resuspended with a Dounce homogenizer in TME and frozen. At assay, a small aliquot was thawed on ice and resuspended in TME buffer. […] These compounds are considered active.

SMILES | pIC50
CCCNC(=O)N1CCN(C2CCc3ccc(OC)cc32)CC1 (stereo not shown) [N-(n-Propyl)-4-(6-methoxy-indan-1-yl)piperazine-1-carboxamide] | 7.00 to 8.00
C=CC(=O)N1CCN(C2CCc3ccc(OC)cc32)CC1 (stereo not shown) [1-(Ethenylcarbonyl)-4-(6-methoxy-indan-1-yl)piperazine] | 7.00 to 8.00
COc1ccc2c(c1)C(N1CCN(C(=O)CCl)CC1)CC2 (single isomer, unassigned; (-)) [(-)-1-(Chloroacetyl)-4-(6-methoxy-indan-1-yl)piperazine] | 7.00 to 8.00
COc1ccc2c(c1)C(N1CCN(C(=O)c3cccn3C)CC1)CC2 (single isomer, unassigned; (-)) [(-)-4-(6-Methoxy-indan-1-yl)-1-[(1-methyl-pyrrol-2-yl)carbonyl]piperazine] | > 8.00
CCc1ccc2c(c1)C(N1CCN(C(=O)C(C)C)CC1)CC2 (stereo not shown) [4-(6-Ethyl-indan-1-yl)-1-(2-methylpropanoyl)piperazine] | 6.60 to 7.00
CCNC(=O)N1CCN(C2CCCc3ccc(OC)cc32)CC1 (stereo not shown) [N-Ethyl-4-(7-methoxy-tetralin-1-yl)piperazine-1-carboxamide] | 6.60 to 7.00
COc1ccc2c(c1)C(N1CCN(C(=O)C3CC3)CC1)CCC2 (stereo not shown) [1-(Cyclopropylcarbonyl)-4-(7-methoxy-tetralin-1-yl)piperazine] | 6.60 to 7.00
COc1ccc2c(c1)C(N1CCN(C(=O)C3CCCC3)CC1)CC2 (stereo not shown) [1-(Cyclopentylcarbonyl)-4-(6-methoxy-indan-1-yl)piperazine] | 7.00 to 8.00
COc1ccc2c(c1)C(N1CCN(C(C)=O)CC1)CCC2 (stereo not shown) [1-Acetyl-4-(7-methoxy-tetralin-1-yl)piperazine] | 7.00 to 8.00
COc1ccc2c(c1)C(N1CCN(C(=O)c3ccc[nH]3)CC1)CC2 (single isomer, unassigned; (-)) [(-)-4-(6-Methoxy-indan-1-yl)-1-[(1H-pyrrol-2-yl)carbonyl]-piperazine] | 7.00 to 8.00
CCCC(=O)N1CCN(C2CCc3ccc(OC)cc32)CC1 (stereo not shown) [1-Butanoyl-4-(6-methoxy-indan-1-yl)piperazine] | > 8.00
COc1ccc2c(c1)C(N1CCN(C(=O)c3ccco3)CC1)CC2 (stereo not shown) [1-[(2-Furanyl)carbonyl]-4-(6-methoxy-indan-1-yl)piperazine] | > 8.00
COc1ccc2c(c1)C(N1CCN(C(=O)NC3CC3)CC1)CC2 (stereo not shown) [N-Cyclopropyl-4-(6-methoxy-indan-1-yl)piperazine-1-carboxamide] | > 8.00
CCNC(=O)N1CCN(C2CCc3ccc(OC)cc32)CC1 (stereo not shown) [N-Ethyl-4-(6-methoxy-indan-1-yl)piperazine-1-carboxamide] | 7.00 to 8.00
CC(=O)NCCc1c(Cc2ccccc2)[nH]c2ccccc12 [Luzindole, reference compound] | 6.60 to 7.00
COc1ccc2c(c1)C(N1CCN(C(=O)C=C(C)C)CC1)CC2 (single isomer, unassigned; (-)) [(-)-1-[(2,2-Dimethyl-ethenyl)carbonyl]-4-(6-methoxy-indan-1-yl)piperazine] | 7.00 to 8.00
CCC(C)(C)C(=O)N1CCN(C2CCc3ccc(OC)cc32)CC1 (single isomer, unassigned; (-)) [(-)-1-(2,2-Dimethyl-butanoyl)-4-(6-methoxy-indan-1-yl)piperazine] | 7.00 to 8.00
CCC(=O)C(=O)N1CCN(C2CCc3ccc(OC)cc32)CC1 (single isomer, unassigned; (-)) [(-)-4-(6-Methoxy-indan-1-yl)-1-(2-oxo-butanoyl)piperazine] | 7.00 to 8.00
COc1ccc2c(c1)C(N1CCN(C(=O)c3ccccc3)CC1)CC2 (single isomer, unassigned; (-)) [(-)-1-(Benzoyl)-4-(6-methoxy-indan-1-yl)piperazine] | 6.60 to 7.00
COc1cc2c(cc1F)CCC2N1CCN(C(=O)C2CC2)CC1 (stereo not shown) [1-(Cyclopropylcarbonyl)-4-(5-fluoro-6-methoxy-indan-1-yl)piperazine] | 7.00 to 8.00
C=CCCCCCCCCC(=O)N1CCN(C2CCc3ccc(OC)cc32)CC1 (single isomer, unassigned; (-)) [(-)-4-(6-Methoxy-indan-1-yl)-1-(10-undecenoyl)piperazine] | 6.60 to 7.00
CNC(=O)N1CCN(C2CCCc3ccc(OC)cc32)CC1 (stereo not shown) [N-Methyl-4-(7-methoxy-tetralin-1-yl)piperazine-1-carboxamide] | 7.00 to 8.00

SMILES | pIC50
COc1ccc2c(c1)C(N1CCN(C(=O)c3ccccc3O)CC1)CC2 (single isomer, unassigned; (-)) [(-)-1-(2-Hydroxybenzoyl)-4-(6-methoxy-indan-1-yl)piperazine] | > 8.00
COc1ccc2c(c1)C(N1CCCN(C(=O)C(C)C)CC1)CC2 (stereo not shown) [4-(6-Methoxy-indan-1-yl)-1-(2-methyl-propanoyl)homopiperazine] | 7.00 to 8.00
COc1ccc2c(c1)C(N1CCN(C(=O)CSC)CC1)CC2 (single isomer, unassigned; (-)) [(-)-4-(6-Methoxy-indan-1-yl)-1-(2-methylthioacetyl)piperazine] | > 8.00
COc1ccc2c(c1)C(N1CCN(C(=O)c3cc(Br)c(Br)s3)CC1)CC2 (single isomer, unassigned; (-)) [(-)-1-[(4,5-Dibromo-thien-2-yl)carbonyl]-4-(6-methoxy-indan-1-yl)piperazine] | 6.60 to 7.00
CCCC(=O)N1CCN(C2CCCc3ccc(OC)cc32)CC1 (stereo not shown) [1-(1-Butanoyl)-4-(7-methoxy-tetralin-1-yl)piperazine] | 7.00 to 8.00
COc1ccc2c(c1)C(N1CCN(C(=O)c3ccc(Cl)s3)CC1)CC2 (single isomer, unassigned; (-)) [(-)-1-[(5-Chloro-thien-2-yl)carbonyl]-4-(6-methoxy-indan-1-yl)piperazine] | 6.60 to 7.00
COc1ccc2c(c1)C(N1CCN(C(=O)c3csnn3)CC1)CC2 (single isomer, unassigned; (-)) [(-)-4-(6-Methoxy-indan-1-yl)-1-[(1,2,3-thiadiazol-4-yl)carbonyl]-piperazine] | 7.00 to 8.00
CCNC(=O)N1CCN(C2CCc3ccc(OCC)cc32)CC1 (stereo not shown) [N-Ethyl-4-(6-ethoxy-indan-1-yl)piperazine-1-carboxamide] | 7.00 to 8.00
CCCOc1ccc2c(c1)C(N1CCN(C(=O)NCC)CC1)CC2 (stereo not shown) [N-Ethyl-4-(6-propyloxy-indan-1-yl)piperazine-1-carboxamide] | 7.00 to 8.00
CCNC(=O)N1CCN(C2CCc3cc(F)c(OC)cc32)CC1 (stereo not shown) [N-Ethyl-4-(5-fluoro-6-methoxy-indan-1-yl)piperazine-1-carboxamide] | 7.00 to 8.00
COc1ccc2c(c1)C(N1CCN(C(=O)c3ccsc3)CC1)CC2 (single isomer, unassigned; (-)) [(-)-4-(6-Methoxy-indan-1-yl)-1-[(3-thienyl)carbonyl]piperazine] | > 8.00
COCC(=O)N1CCN(C2CCc3ccc(OC)cc32)CC1 (stereo not shown) [1-(Methoxyacetyl)-4-(6-methoxy-indan-1-yl)piperazine] | 7.00 to 8.00
CCCCCCCCCOc1ccc2c(c1)C(N1CCN(C(=O)C3CC3)CC1)CC2 (stereo not shown) [1-(Cyclopropylcarbonyl)-4-(6-nonyloxy-indan-1-yl)piperazine] | 6.60 to 7.00
CCC(C)C(=O)N1CCN(C2CCc3ccc(OC)cc32)CC1 (stereo not shown) [4-(6-Methoxy-indan-1-yl)-1-(2-methyl-butanoyl)piperazine] | 7.00 to 8.00
COc1ccc2c(c1)C(N1CCN(C(=O)C(C)C)CC1)CC2 (stereo not shown) [4-(6-Methoxy-indan-1-yl)-1-(2-methyl-propanoyl)piperazine] | > 8.00 and 6.60 to 7.00
CNC(=O)N1CCN(C2CCc3cc(F)c(OC)cc32)CC1 (stereo not shown) [N-Methyl-4-(5-fluoro-6-methoxy-indan-1-yl)piperazine-1-carboxamide] | 7.00 to 8.00
COc1ccc2c(c1)C(N1CCN(C(=O)c3sccc3Cl)CC1)CC2 (single isomer, unassigned; (-)) [(-)-1-[(3-Chlorothien-2-yl)carbonyl]-4-(6-methoxy-indan-1-yl)-1-piperazine] | > 8.00
COc1ccc2c(c1)C(N1CCN(C(=O)c3ccccc3Cl)CC1)CC2 (single isomer, unassigned; (-)) [(-)-1-(2-Chlorobenzoyl)-4-(6-methoxy-indan-1-yl)piperazine] | 6.60 to 7.00
COc1ccc2c(c1)C(N1CCN(C(=O)c3ccoc3)CC1)CC2 (single isomer, unassigned; (-)) [(-)-1-[(3-Furanyl)carbonyl]-4-(6-methoxy-indan-1-yl)piperazine] | 7.00 to 8.00
CCOC(=O)N1CCN(C2CCc3ccc(OC)cc32)CC1 (stereo not shown) [1-(Ethoxycarbonyl)-4-(6-methoxy-indan-1-yl)piperazine] | 6.60 to 7.00
COc1ccc2c(c1)C(N1CCCN(C(=O)C3CC3)CC1)CC2 (stereo not shown) [1-(Cyclopropylcarbonyl)-4-(6-methoxy-indan-1-yl)homopiperazine] | 7.00 to 8.00
